# Where two headings read alike, the source gives them in different places.
# Experiments:
# [1] = test system: CXF HT29; experiment: Monolayer proliferation assay (modified propidium iodide), CXF HT29; format: cell-based, human; settings: average of 2 experiments
# Experimental: (§1) In vitro evaluation of compounds for anticancer activity in a panel of human tumour cell lines in a monolayer proliferation assay was carried out at the Oncotest Testing Facility, Institute for Experimental Oncology, Oncotest GmbH, Freiburg.
# (§2) The Oncotest cell lines are established from human tumor xenografts as described by Roth et al., (1999). The origin of the donor xenografts is described by Fiebig et al., (1999). Other cell lines are either obtained from the NCl (DU145, MCF-7) or purchased from DSMZ, Braunschweig, Germany.
# (§3) All cell lines, unless otherwise specified, are grown at 37° C. in a humidified atmosphere (95% air, 5% CO2) in a ‘ready-mix’ medium containing RPMI 1640 medium, 10% fetal calf serum, and 0.1 mg/mL gentamicin (PAA, Cölbe, Germany).
# (§4) A modified propidium iodide assay was used to assess the effects of the test compound(s) on the growth of six human tumour cell lines (Dengler et al., (1995)).
# (§5) Briefly, cells are harvested from exponential phase cultures by trypsinization, counted and plated in 96 well flat-bottomed microtitre plates at a cell density dependent on the cell line (5-10.000 viable cells/well). After 24 h recovery to allow the cells to resume exponential growth, 0.010 mL of culture medium (6 control wells per plate) or culture medium containing macbecin were added to the wells. Each concentration is plated in triplicate. Compounds were applied in two concentrations (0.001 mM and 0.01 mM). Following 4 days of continuous exposure, cell culture medium with or without test compound was replaced by 0.2 mL of an aqueous propidium iodide (P1) solution (7 mg/L). To measure the proportion of living cells, cells were permeabilized by freezing the plates. After thawing the plates, fluorescence was measured using the Cytofluor 4000 microplate reader (excitation 530 nm, emission 620 nm), giving a direct relationship to the total number of viable cells.
# (§6) Growth inhibition is expressed as treated/control×100 (% T/C).
# (§7) In vitro evaluation of the test compound, 20, for anticancer activity in a panel of human tumour cell lines in a monolayer proliferation assay was carried out as described in the general methods using a modified propidium iodide assay.
# [2] = test system: Caco-2 cells; experiment: In vitro Caco-2 assay for cell permeability; format: in vitro ADME; settings: 10 uM, 2 hour incubation
# Experimental: (§8) Caco-2 cells (ATCC Cat. # HTB-37) were grown on fibrillar collagen-coated, microporous, polycarbonate membranes in 24-well BioCaot™ insert plates. Following 5-day growth in Eagle's minimum essential medium supplemented with 10% FBS, the cells were exposed to BioCoat Enterocyte Differentiation Medium (BD, Cat. # 05496) for 2 days to induce enterocytic differentiation. Prior to dosing, the transepithelial electric resistance (TEER) of the Caco-2 cells in each well was measured to ensure the quality of the monolayers.
# (§9) The stock solutions of test compounds were prepared at 3 mM in DMSO. Dosing solutions were prepared in the permeability assay buffer at 10 μm. The permeability assay buffer was Hank's balanced salt solution containing 10 mM HEPES at a pH of 7.4±0.2.
# (§10) The Caco-2 cells were dosed with the test compounds on either apical side (for A-to-B permeation) or basolateral side (for B-to-A permeation) and incubated at 37° C. with 5% CO2 and 90% relative humidity. The testing for each compound was performed in duplicate. After 2 hour incubation, a 20-μL sample was taken from each of dosing solutions and both donor and receiver compartments. To ensure the validity of the Caco-2 assay, propranolol and vinblastine were used as a high- and a low- to medium-permeability positive control, respectively. Vinblastine also served as a P-gp substrate, tested in conjunction with a P-gp inhibitor, verapamil.
# (§11) To quantify test compounds by LC/MS/MS, a related geldanamycin-like compound, 17-methoxyethylamino geldanamycin (Schnur et al., 1995), was used as the internal standard. The calculation of permeability of each compound involved only the concentration ratio of the same test compound, the concentration ratio was expressed in the peak area ratio of the test compound to the internal standard. The peak area ratio of each compound was derived by LC-MS/MS.
# (§12) The apparent permeability coefficient Papp was calculated as below: […]
# (§13) dCr: cumulative concentration in the receiver compartment in M. dt: duration of the assay (i.e., 7200 seconds). Vr: volume of the receiver compartment in cm^3. A: area of the cell monolayer (0.31 cm^2 for 24-well BioCoat™ plate). C0: concentration of the dosing solution in M.
# (§14) The in vitro permeability of 20 and the parent 17 were assayed using caco-2 cells, as described in the general methods. All compounds were analysed at a concentration of 10 uM.
# [3] = In vitro Caco-2 assay for cell permeability; format: in vitro ADME; settings: human, Caco-2, pH 7.4, 10 uM, 2 hour incubation
# Experimental: as §8, §9, §10, §11, §12, §13, §14
# [4] = test system: MCF-7; experiment: Monolayer proliferation assay (modified propidium iodide), MCF-7; format: cell-based, human; settings: average of 2 experiments
# Experimental: as §1, §2, §3, §4, §5, §6, §7
# [5] = Whole blood cleavage assay, mouse blood; format: in vitro ADME; settings: 10 uM, 37° C., two hours
# Experimental: Human whole blood (single donor, batch HBE4534) was obtained from First Link UK Ltd. Mouse whole blood (pool of 10, batch 07-2470) was obtained from Harlan UK. Blood was collected into tubes containing EDTA as anticoagulant and shipped on ice. Blood was used on the day of arrival. In the case of human whole blood incubations were undertaken both on the fresh blood and also after freezing the blood followed by thawing. Control compounds were Lidocaine, Bisacodyl and Simvastatin.
# All test compounds were incubated at 10 uM in whole blood at 37° C. At selected time points, 0.1 ml of blood was mixed with 0.3 ml of acetonitrile and vortexed immediately. All samples were centrifuged and supernatant were diluted with same volume of deionized water. […] For 20 sample analysis, mass spectrometry monitored both 17 and 20. […]
# The Half life, for the disappearance of 20, was determined according to the relationship: […]
# Blood cleavage assays were run to confirm that 20 acts as a prodrug and cleaves to produce compound 17 when incubated with human and mouse blood, as described in the general methods. The compound was incubated in human or mouse blood with samples removed over two hours, and analysed by LC MS/MS for presence of 20 and 17 (see FIG. 6). […] Due to the differing responses of 17 and 20 on mass spectrometry it was not possible to quantify the extent of conversion of 20 to 17.
smiles,measurement,setting,value
"CO[C@H]1C[C@H](C)Cc2cc(cc(OP(=O)(O)O)c2)NC(=O)/C(C)=C/CC[C@H](C)[C@@H](OC(N)=O)/C(C)=C/[C@H](C)[C@H]1O [Compound 20, 4,5-dihydro-11-O-demethyl-15-demethoxy-18,21-didehydro-21-deoxomacbecin-18-phosphate]",Test/Control (%) at drug concentration (μg/mL),"[1]; CXF HT29, 0.01 μg/mL",112%
same,Test/Control (%) at drug concentration (μg/mL),"[1]; CXF HT29, 0.1 μg/mL",43%
same,Test/Control (%) at drug concentration (μg/mL),"[1]; CXF HT29, 1 μg/mL",7%
same,Test/Control (%) at drug concentration (μg/mL),"[1]; CXF HT29, 10 μg/mL",7%
same,Test/Control (%) at drug concentration (μg/mL),"[1]; CXF HT29, 100 μg/mL",5%
same,Efflux Limited,[2],No
same,"efflux ratio at 2 h, 10 uM",[3]; read-out: Efflux ratio Papp(B → A)/Papp(A → B),0.7
same,"Papp A→B at 2 h, 10 uM",[3]; read-out: Permeability Apical to Basolateral Papp(A → B) Mean,0.49 ×10⁻⁶ cm/s
same,"Papp A→B at 2 h, 10 uM",[3]; read-out: Permeability Apical to Basolateral Papp(A → B) Rep. 1,0.67 ×10⁻⁶ cm/s
same,"Papp A→B at 2 h, 10 uM",[3]; read-out: Permeability Apical to Basolateral Papp(A → B) Rep. 2,0.31 ×10⁻⁶ cm/s
same,"Papp B→A at 2 h, 10 uM",[3]; read-out: Permeability Basolateral to Apical Papp(B → A) Mean,0.35 ×10⁻⁶ cm/s
same,"Papp B→A at 2 h, 10 uM",[3]; read-out: Permeability Basolateral to Apical Papp(B → A) Rep. 1,0.22 ×10⁻⁶ cm/s
same,"Papp B→A at 2 h, 10 uM",[3]; read-out: Permeability Basolateral to Apical Papp(B → A) Rep. 2,0.48 ×10⁻⁶ cm/s
same,Test/Control (%) at drug concentration (μg/mL),"[4]; MCF-7, 0.01 μg/mL",98%
same,Test/Control (%) at drug concentration (μg/mL),"[4]; MCF-7, 0.1 μg/mL",38%
same,Test/Control (%) at drug concentration (μg/mL),"[4]; MCF-7, 1 μg/mL",14%
same,Test/Control (%) at drug concentration (μg/mL),"[4]; MCF-7, 10 μg/mL",13%
same,Test/Control (%) at drug concentration (μg/mL),"[4]; MCF-7, 100 μg/mL",9%
same,conversion in blood,[5],act as a prodrug and release 17
